Experiment: Empiric porcine aortic contrast enhancement, dynamic CT at fixed mid-abdominal aortic level after i.v. injection
Type: in vivo, pig
Description: In order to test the mathematical solutions, a porcine study was conducted. All animal care and procedures performed were approved by the Institutional Animal Study Committee. […] Each session was separated by at least two days. Two pigs had all their sessions within a week, while the other two pigs had their first two and last sessions delays 4-5 weeks, which results in an increase in their weight to 35-40 kg in their last session. In each session, the pig was anesthetized, intubated, and underwent scanning for three or four sets of images obtained in random order. During scanning, each pig was ventilated with oxygen and low tidal volume to minimize breathing motion artifact. […] Each set of scans were 45-60 minutes apart to minimize the effect of prior contrast administration. All CT scanning was performed with a Somatom Plus-S scanner (Siemens Medical Systems, […].) using a one-second scanning time and a one-second interscan delay. Three types of injection schemes were tested: uniphasic, biphasic, and multiphasic. Biphasic injections were performed by a prior art power injector which was used in routine clinical CT scanning while uniphasic and multiphasic injections were conducted with a power injector which was invented for achieving the required protocols. This power injector was capable of delivering contrast medium in various uniphasic or multiphasic injection algorithms, as is explained in greater detail below. The multiphasic injection rate is determined by an initial injection rate and an exponential decay coefficient, as shown in FIG. 3. […] Most injections were performed with the initial injection rate of 2 mL/s. […] Three differential exponential decay coefficients (0.007, 0.017, 0.026) were tested. […] These were the three smallest discrete increments allowed in the prototype of the inventive power injector. Decay coefficient higher than 0.03 was not used because it was evident that a further increase in the coefficient would deviate further away from uniform vascular enhancements. A uniphasic injection was determined as being equivalent to a zero exponential decay coefficient where the injection rate remains constant at an initial injection rate throughout the injection duration. […] Approximately half of the total contrast volume was injected in each phase of the biphasic injections. […] Attenuation values of the aorta were measured from post-contrast scans (at the same level as the pre-contrast scans) using a circular region of interest (ROI) at the center of the aorta. Contrast enhancement was calculated as the absolute different in attenuation value between the pre- and post-contrast scans. For the data analysis, the injection duration (ID), the magnitude of peak aortic enhancement (PA), and the uniformity of enhancement (the duration of the enhancement achieved with 90% of the peak: 90% DCE) were evaluated. Means and standard deviations were also computed. The results are now explained.

[1] = 25 kg pig, 50 mL of 282 mgI/mL contrast medium, uniphasic 2 mL/sec
[2] = four pigs, 50 mL, 2 mL/s initial injection rate, decay constant 0.017
[3] = four pigs, 70 mL, 2 mL/s initial injection rate, decay constant 0.017

CNC(=O)c1c(I)c(NC(C)=O)c(I)c(C(=O)O)c1I.CNC[C@H](O)[C@@H](O)[C@H](O)[C@H](O)CO [contrast medium, iothalmate meglumine]
magnitude of the peak aortic enhancement (empiric) [1]: 250 HU
time to the peak aortic enhancement (empiric) [1]: 26 s
pattern of aortic enhancement, multiphasic vs uniphasic injection (50 mL and 70 mL, 2 mL/s, decay constant 0.017): more prolonged and uniform vascular enhancement than uniphasic injections
pattern of aortic enhancement, biphasic injection (70 mL, 2 mL/s for 17 sec then 1.0 mL/s for 36 sec): two enhancement peaks with a valley in between
increase of 90% DCE (duration of enhancement achieved with 90% of the peak), multiphasic vs uniphasic injection, mean [2]: 81%
reduction of peak aortic enhancement (PA), multiphasic vs uniphasic injection, mean [2]: 19%
decrease of peak aortic enhancement (PA), multiphasic vs uniphasic injection [3]: 18%
increase of 90% DCE, multiphasic vs uniphasic injection [3]: 94%
pattern of aortic enhancement, multiphasic exponential injection, decay constant 0.017 (two pigs (25 kg, 40 kg), compared with decay constants 0.007 and 0.026): more uniform than with other injection protocols

Source: patent US6470889B1 (B.H.B., L.C., priority 1999, dated 2002)
